From US20110319360A1, “Method of including apoptosis/Cell death in leukemia cell using a purine nucleoside analogue” (U.S. Department of Veterans Affairs, priority 2010, published 2011)
Like-named read-outs stand apart in the source and are kept apart here.

Assays:
[1] = system: normal PBMCs; test: MTS cytotoxicity assay on PBMCs from normal donors; type: cell-based, human; settings: for EC50: Homo sapiens, PBMC, read-out: ED50 (μM), PBMC
Experimental: For toxicity studies involving normal blood cells, normal volunteers were enrolled in an IRB-approved protocol for blood collection. PBMCs were isolated from heparin-anticoagulated blood by ficoll-Hypaque density gradient centrifugation.
(§1) 2.5×10^5 CLL cells were incubated in triplicate or quadruplicate in a 96-well tissue culture plate (Costar, Corning, N.Y.) with serial dilutions of LMP-420, fludarabine, and/or recombinant TNF-alpha (R&D Systems, Minneapolis, Minn.) in Hybridoma serum free media (SFM) (GIBCO/Invitrogen, Carlsbad, Calif.) containing 10% heat-inactivated fetal bovine serum (FBS) (Sigma) at 37° C. with 5% CO2. After 72 hours, 20 μl CellTiter 96® AQueous One Solution Cell Proliferation Assay (Promega, Madison, Wis.) MTS (3-(4,5 dimethylthiazol-2-yl)-5-(3-carboxymethoxyphenyl-2-(4-sulfophenyl)-2H-tetrazolium) reagent was added to each well and the absorbance was read at 490 nm on a Thermomax microplate reader (Molecular Devices, Sunnyvale, Calif.). We calculated fractional cytotoxicity as performed previously (Reference 12), comparing absorbance at 490 nm from treated cells to control cells incubated with media alone.
(§2) The concentration effective at killing 50% of CLL cells compared to media alone (ED50) was calculated when 50% fractional cytotoxicity occurred within the range of serial dilutions tested (Reference 12). If the ED50 fell below or above this range, it was set to either the lowest or the highest concentration tested, respectively, for the purposes of statistical analyses and graphical representation.

[2] = system: normal PBMCs; test: [3H]-thymidine proliferation assay, mitogen-stimulated normal PBMCs; type: cell-based, human; settings: Homo sapiens, PBMC, 96 h
Experimental: CLL cells (2×10^5 cells/well) were cultured in quadruplicate in a volume of 200 μl in 96-well tissue culture plates for 96 hours with 1 μM CpG-oligodeoxynucleotides (ODN) DSP30 (Reference 14) (Midland Certified Reagent Company, Midland, Tex.) and 100 units/ml IL-2 (R&D Systems) in the presence or absence of drug. As controls, cells were treated with media without DSP30/IL-2. Cells were incubated with 1 μCi/well [methyl-^3H]-thymidine (specific activity 6.7 Ci/mmol, PerkinElmer, Waltham, Mass., USA) for 14-18 hours prior to harvesting onto glass-fiber filters using a semi-automated cell harvester. [^3H]-thymidine incorporation was measured as counts per minute (cpm) using a Tri-Carb 2100 timed-resolved liquid scintillation counter (PerkinElmer). The same protocol was utilized for proliferation assays with normal PBMCs, with the exception that growth was stimulated by treatment with 10 μg/ml Phytohemagglutinin-P (PHA, Sigma), 5 μg/ml concanavalin A (ConA, Sigma), 2 μg/ml pokeweed mitogen (PWM, Sigma), 25 ng/ml muromonab-CD3 (α-CD3, Ortho Pharmaceuticals, Raritan, N.J.), or 50 ng/ml phorbol myristate acetate (PMA, Sigma) plus 1 μg/ml ionomycin (iono, Sigma) for 96 hours. Proliferation is reported as percent of control (drug-treated cpm/control-treated cpm×100%).

[3] = system: CLL cells; test: MTS cytotoxicity assay on primary CLL cells; type: cell-based; settings: Homo sapiens, CLL cell, 72 h
Experimental: On the same day that heparin-anticoagulated venous blood was collected from participants, CLL cells were purified by methods described previously (Reference 11). Briefly, CLL cells were isolated from whole blood using the RosetteSep® B-cell enrichment cocktail (Stem Cell Technologies, Vancouver, BC, Canada) together with ficoll-Hypaque density gradient centrifugation. This method yielded CLL cell purity of greater than 95% CD5^+CD19^+ B-cells.
as §1, §2

[4] = system: CD3-positive T-cell; test: Annexin V apoptosis of normal T-lymphocytes in PBMCs; type: cell-based, human; settings: 72 hours
Experimental: (§3) PBMCs were cultured at 10^6 cells/ml in a 12-well tissue culture plate. Cells were treated for 72 hours with vehicle control or drug for 72 hours, then harvested as above for staining. PBMCs were resuspended at 2×10^5 cells/tube in 100 μl buffer (HBSS, 0.5% bovine serum albumin, 0.1% sodium azide) and incubated for 30 min with CD3-FITC or CD19-FITC antibodies according to the manufacturer's protocol (BD Biosciences). Cells were then incubated with PE-annexin V and 7-AAD (BD Biosciences) in annexin V binding buffer (BD Biosciences) for 15 minutes prior to analysis of apoptosis on the Guava EasyCyte™ Plus system.

[5] = system: CD34+ hematopoietic progenitor cells (erythroid colonies); test: Colony formation assay, erythroid colonies; type: cell-based, human; settings: Homo sapiens, 336 h, read-out: mean IC50 for normal erythroid colony formation
Experimental: (§4) CD34^+ hematopoietic progenitor cells were isolated from PBMCs from two healthy donors using the CD34 Microbead Kit (Miltenyi Biotec, Auburn, Calif.). 10^3 CD34^+-enriched cells were cultured in a 35 mm culture plate (1000 cells/plate) with or without LMP-420 or fludarabine in 1.1 ml Human Methylcellulose Complete Media (R&D Systems) according to the manufacturer's protocol. Plates were incubated for 14 days at 37° C. in humidified 5% CO2. Each treatment group was tested in triplicate. Colonies on plates were scored by two independent observers, blinded to the treatment groups, by microscopic evaluation under 10× and 20× power. Colonies were categorized as being of either erythroid or myeloid lineage.

[6] = system: CD34+ hematopoietic progenitor cells (myeloid colonies); test: Colony formation assay, myeloid colonies; type: cell-based, human; settings: Homo sapiens, 336 h, read-out: mean IC50 for normal myeloid colony formation
Experimental: as §4

[7] = system: CD19-positive B-cell; test: Annexin V apoptosis of normal B-lymphocytes in PBMCs; type: cell-based, human; settings: 72 hours
Experimental: as §3

[8] = read-out: IC50 for suppression of mitogen-induced proliferation, Con A, 96 hours
[9] = read-out: IC50 for suppression of mitogen-induced proliferation, PHA, 96 hours
[10] = read-out: IC50 for suppression of mitogen-induced proliferation, PMA/Iono, 96 hours
[11] = read-out: IC50 for suppression of mitogen-induced proliferation, PWM, 96 hours
[12] = read-out: IC50 for suppression of mitogen-induced proliferation, α-CD3, 96 hours
[13] = Con A, 96 hours, read-out: IC50 for suppression of mitogen-induced proliferation
[14] = PWM, 96 hours, read-out: IC50 for suppression of mitogen-induced proliferation
[15] = mean, PBMCs from healthy blood donors (n = 3-6)

Compound | Therapeutic Index (PBMC ED50/CLL ED50) [1] | IC50 [2, 8] | IC50 [2, 9] | IC50 [2, 10] | IC50 [2, 11] | IC50 [2, 12] | EC50 [1] | IC50 [2, 13] | IC50 [2, 14] | EC50 [1, 15] | further results
4-hydroperoxycyclophosphamide [Cyclophosphamide/4-HC] | 1.7 | – | – | – | – | – | – | – | – | – | –
Cn1c(CCCC(=O)O)nc2cc(N(CCCl)CCCl)ccc21 [Bendamustine, bendamustine] | 29.2 | 16 µM | 17 µM | 35 µM | 14 µM | 20 µM | 146 µM | – | – | – | –
O=C(O)CCCc1ccc(N(CCCl)CCCl)cc1 [Chlorambucil] | 22.6 | 12 µM | 11 µM | 7 µM | 7.5 µM | 12.5 µM | 67.7 µM | – | – | – | –
Nc1nc(Cl)nc2c1ncn2[C@H]1C[C@H](O)[C@@H](CO)O1 [Cladribine, cladribine] | 10 | – | – | – | – | – | – | 0.15 µM | 0.1 µM | 0.1 µM | –
Nc1nc(F)nc2c1ncn2[C@@H]1O[C@H](COP(=O)(O)O)[C@@H](O)[C@@H]1O [Fludarabine, fludarabine phosphate, reference compound] | 2.6 | – | – | – | – | – | – | < 3 µM | < 3 µM | 3.1 µM | EC50 ([3]; read-out: Median ED50 of fludarabine, 62 nM of LMP-420 added, 72 hours, 21 patient samples): 0.252 µM; EC50 ([3]; read-out: Median ED50 of fludarabine, 250 nM of LMP-420 added, 72 hours, 21 patient samples): 0.125 µM; EC50 ([3]; read-out: Median ED50 of fludarabine, no LMP-420 added, 72 hours, 21 patient samples): 0.978 µM; apoptosis in normal T-cells ([4]; 0.4 μM): caused significant apoptosis; average percent drug-specific apoptosis, T-cells ([4]; 1 μM, n=3): 81%; IC50 ([2]; PHA, 96 hours, read-out: IC50 for suppression of mitogen-induced proliferation): < 3 µM; IC50 ([2]; PMA/Iono, 96 hours, read-out: IC50 for suppression of mitogen-induced proliferation): 0.8 µM; IC50 ([2]; α-CD3, 96 hours, read-out: IC50 for suppression of mitogen-induced proliferation): < 3 µM; IC50 [5]: 5 µM; IC50 [6]: 1 µM; apoptosis in normal B-cells ([7]; 0.4 μM): caused significant apoptosis; average percent drug-specific apoptosis, B-cells ([7]; 1 μM, n=3): 70%
